Results taken from PubChem BioAssay AID1918941 (Molecular Pharmacology Branch, DTP, NCI, 2023).

System: SW 1271 complex spheroids, viability
Assay: Anticancer human tumor SW 1271 cell line growth inhibition [LSD1];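 further: spheroids exposed to agents for 7 days before luminescence read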;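 on viability, T/C: 100% = DMSO vehicle control viability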
Conditions: for IC50: curve of first compound; for viability, T/C: stronger effect = lower value
Method in brief: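 Multicellular complex spheroids of tumor cells with human endothelial cells (HUVEC) and mesenchymal stem cells; the LSD1 inhibitor iadademstat was combined with standard-of-care or investigational agents. Top concentration at or near clinical Cmax, half-log dilutions; final DMSO ≤0.25%.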

[1] = second compound 0.1 µM, first compound 0.00316 µM
[2] = second compound 0.1 µM, first compound 0.01 µM
[3] = second compound 0.1 µM, first compound 0.0316 µM
[4] = second compound 0.1 µM, first compound 0.1 µM
[5] = second compound 0.1 µM, first compound 0.316 µM
[6] = second compound 0.1 µM, first compound 1 µM
[7] = second compound 0.316 µM, first compound 0.00316 µM
[8] = second compound 0.316 µM, first compound 0.01 µM
[9] = second compound 0.316 µM, first compound 0.0316 µM
[10] = second compound 0.316 µM, first compound 0.1 µM
[11] = second compound 0.316 µM, first compound 0.316 µM
[12] = second compound 0.316 µM, first compound 1 µM
[13] = second compound 1 µM, first compound 0.00316 µM
[14] = second compound 1 µM, first compound 0.01 µM
[15] = second compound 1 µM, first compound 0.0316 µM
[16] = second compound 1 µM, first compound 0.1 µM
[17] = second compound 1 µM, first compound 0.316 µM
[18] = second compound 1 µM, first compound 1 µM
[19] = second compound 3.16 µM, first compound 0.00316 µM
[20] = second compound 3.16 µM, first compound 0.01 µM
[21] = second compound 3.16 µM, first compound 0.0316 µM
[22] = second compound 3.16 µM, first compound 0.1 µM
[23] = second compound 3.16 µM, first compound 0.316 µM
[24] = second compound 3.16 µM, first compound 1 µM
[25] = second compound 10 µM, first compound 0.00316 µM
[26] = second compound 10 µM, first compound 0.01 µM
[27] = second compound 10 µM, first compound 0.0316 µM
[28] = second compound 10 µM, first compound 0.1 µM
[29] = second compound 10 µM, first compound 0.316 µM
[30] = second compound 10 µM, first compound 1 µM

Structure (SMILES)	IC50 (second compound 0.1 µM) [nM]	IC50 (second compound 0.316 µM) [nM]	IC50 (second compound 1 µM) [nM]	IC50 (second compound 3.16 µM) [nM]	IC50 (second compound 10 µM) [nM]	viability, T/C [3] [%]	viability, T/C [4] [%]	viability, T/C [5] [%]	viability, T/C [6] [%]	viability, T/C [9] [%]	viability, T/C [10] [%]	viability, T/C [11] [%]	viability, T/C [12] [%]	viability, T/C [15] [%]	viability, T/C [16] [%]	viability, T/C [17] [%]	viability, T/C [18] [%]	viability, T/C [21] [%]	viability, T/C [22] [%]	viability, T/C [23] [%]	also measured
CC1COCCN1c1cc(-c2ccnn2C)c2ccnc(-c3ccn[nH]3)c2n1 (stereo not given) + NC1CC1c1ccc(-c2cccc(O)c2)cc1	48.5	23.8	37.2	36.8	31.3	51.6	42.9	39.4	26.6	49.7	40.6	39.1	31	55.4	46.6	30.6	28.8	54.7	38.2	40.2	viability, T/C [1]: 65.2%; viability, T/C [2]: 62.7%; viability, T/C [7]: 55.5%; viability, T/C [8]: 55.6%; viability, T/C [13]: 63.7%; viability, T/C [14]: 51.1%; viability, T/C [19]: 58%; viability, T/C [20]: 54.3%; viability, T/C [24]: 22.6%; viability, T/C [25]: 67.1%; viability, T/C [26]: 51.5%; viability, T/C [27]: 50.3%; viability, T/C [28]: 41.6%; viability, T/C [29]: 40.2%; viability, T/C [30]: 24.9%
COc1ccc([C@@H](O)c2cc(-c3ncnc4cc(N5CCOCC5)ccc34)c(F)cc2Cl)nn1 + NC1CC1c1ccc(-c2cccc(O)c2)cc1	616	463	664	355	351	78.6	79.9	55	44.4	76.4	76.8	52.2	38	72.9	76.6	60.3	43.7	69.5	64.8	49.2	viability, T/C (second compound 0.1 µM, first compound 3.16 µM): 31%; viability, T/C (second compound 0.1 µM, first compound 10 µM): 21.9%; viability, T/C (second compound 0.316 µM, first compound 3.16 µM): 37.3%; viability, T/C (second compound 0.316 µM, first compound 10 µM): 22.1%; viability, T/C (second compound 1 µM, first compound 3.16 µM): 31.7%; viability, T/C (second compound 1 µM, first compound 10 µM): 26.4%; viability, T/C [24]: 38.5%; viability, T/C (second compound 3.16 µM, first compound 3.16 µM): 30.5%; viability, T/C (second compound 3.16 µM, first compound 10 µM): 19.7%; viability, T/C [27]: 60.5%; viability, T/C [28]: 58.4%; viability, T/C [29]: 50.3%; viability, T/C [30]: 40.2%; viability, T/C (second compound 10 µM, first compound 3.16 µM): 27.5%; viability, T/C (second compound 10 µM, first compound 10 µM): 20.5%
O=C(C=Cn1cnc(-c2cc(C(F)(F)F)cc(C(F)(F)F)c2)n1)NNc1cnccn1 + NC1CC1c1ccc(-c2cccc(O)c2)cc1	140	148	88.9	171	195	66.7	49.3	45.3	21.6	64.8	51.7	42	19.4	69.5	41.3	39.7	23.7	76.1	53.3	43.1	viability, T/C [1]: 79%; viability, T/C [2]: 70.9%; viability, T/C [7]: 68.7%; viability, T/C [8]: 74.1%; viability, T/C [13]: 73%; viability, T/C [14]: 64.1%; viability, T/C [19]: 73.9%; viability, T/C [20]: 77.3%; viability, T/C [24]: 23.4%; viability, T/C [25]: 71.2%; viability, T/C [26]: 73.6%; viability, T/C [27]: 68.1%; viability, T/C [28]: 55.3%; viability, T/C [29]: 45.8%; viability, T/C [30]: 28%
